Among the data in ChEMBL document CHEMBL5465560, “Selectivity Literature for EUbOPEN Chemogenomic Library” (2024) are % of control and % of inhibition values, retold here.

The target in assay [1] is Cyclin-dependent kinase 2 (Homo sapiens, UniProt P24941). The assay can be described thus: Selectivity interaction (Ambit KINOMEscan and KiNATiv profiling in Jurkat cells) EUB0000090b CDK2. As to conditions: at 1 µM. It counts as cell-based.
Assay [2] has as its target Serine/threonine-protein kinase WNK3 (Homo sapiens) (UniProt Q9BYP7). Briefly: Selectivity interaction (Ambit KINOMEscan and KiNATiv profiling in Jurkat cells) EUB0000090b WNK3. It counts as cell-based. As to conditions: at 1 µM.
Assay [3] concerns the target Calcium/calmodulin-dependent protein kinase type 1D (Homo sapiens) (UniProt Q8IU85). The assay can be described thus: Selectivity interaction (ActivX KiNativ screen (kinase selectivity in THP-1 cell lysates)) EUB0000639a CAMK1D. Type of assay: subcellular. As to conditions: lysate, at 0.2 µM.
Assay [4] addresses Mitogen-activated protein kinase 14 (Homo sapiens, UniProt Q16539). The assay can be described thus: Selectivity interaction (ActivX KiNativ screen (kinase selectivity in THP-1 cell lysates)) EUB0000639a MAPK14. Type of assay: subcellular. The settings on record: lysate.
In assay [5] the target is Mitogen-activated protein kinase 3 (Homo sapiens, UniProt P27361). Briefly: Selectivity interaction (Kinase panel (Invitrogen)) EUB0000639a MAPK3. The settings on record: at 200 nM.
For assay [6], the target named is Vascular endothelial growth factor receptor 1 (Homo sapiens) (UniProt P17948). Briefly: Selectivity interaction (KinomeScan (DiscoverX)) EUB0000092b FLT1. The settings on record: at 10 µM.
Assay [7] addresses Vascular endothelial growth factor receptor 2 (Homo sapiens, UniProt P35968). The assay can be described thus: Selectivity interaction (KinomeScan (DiscoverX)) EUB0000092b KDR. The settings on record: at 10 µM.
Assay [8] deals with T1, Phosphatidylinositol 3-kinase C2 domain-containing subunit gamma (Homo sapiens) (UniProt O75747).
T1 sequence (whole entry): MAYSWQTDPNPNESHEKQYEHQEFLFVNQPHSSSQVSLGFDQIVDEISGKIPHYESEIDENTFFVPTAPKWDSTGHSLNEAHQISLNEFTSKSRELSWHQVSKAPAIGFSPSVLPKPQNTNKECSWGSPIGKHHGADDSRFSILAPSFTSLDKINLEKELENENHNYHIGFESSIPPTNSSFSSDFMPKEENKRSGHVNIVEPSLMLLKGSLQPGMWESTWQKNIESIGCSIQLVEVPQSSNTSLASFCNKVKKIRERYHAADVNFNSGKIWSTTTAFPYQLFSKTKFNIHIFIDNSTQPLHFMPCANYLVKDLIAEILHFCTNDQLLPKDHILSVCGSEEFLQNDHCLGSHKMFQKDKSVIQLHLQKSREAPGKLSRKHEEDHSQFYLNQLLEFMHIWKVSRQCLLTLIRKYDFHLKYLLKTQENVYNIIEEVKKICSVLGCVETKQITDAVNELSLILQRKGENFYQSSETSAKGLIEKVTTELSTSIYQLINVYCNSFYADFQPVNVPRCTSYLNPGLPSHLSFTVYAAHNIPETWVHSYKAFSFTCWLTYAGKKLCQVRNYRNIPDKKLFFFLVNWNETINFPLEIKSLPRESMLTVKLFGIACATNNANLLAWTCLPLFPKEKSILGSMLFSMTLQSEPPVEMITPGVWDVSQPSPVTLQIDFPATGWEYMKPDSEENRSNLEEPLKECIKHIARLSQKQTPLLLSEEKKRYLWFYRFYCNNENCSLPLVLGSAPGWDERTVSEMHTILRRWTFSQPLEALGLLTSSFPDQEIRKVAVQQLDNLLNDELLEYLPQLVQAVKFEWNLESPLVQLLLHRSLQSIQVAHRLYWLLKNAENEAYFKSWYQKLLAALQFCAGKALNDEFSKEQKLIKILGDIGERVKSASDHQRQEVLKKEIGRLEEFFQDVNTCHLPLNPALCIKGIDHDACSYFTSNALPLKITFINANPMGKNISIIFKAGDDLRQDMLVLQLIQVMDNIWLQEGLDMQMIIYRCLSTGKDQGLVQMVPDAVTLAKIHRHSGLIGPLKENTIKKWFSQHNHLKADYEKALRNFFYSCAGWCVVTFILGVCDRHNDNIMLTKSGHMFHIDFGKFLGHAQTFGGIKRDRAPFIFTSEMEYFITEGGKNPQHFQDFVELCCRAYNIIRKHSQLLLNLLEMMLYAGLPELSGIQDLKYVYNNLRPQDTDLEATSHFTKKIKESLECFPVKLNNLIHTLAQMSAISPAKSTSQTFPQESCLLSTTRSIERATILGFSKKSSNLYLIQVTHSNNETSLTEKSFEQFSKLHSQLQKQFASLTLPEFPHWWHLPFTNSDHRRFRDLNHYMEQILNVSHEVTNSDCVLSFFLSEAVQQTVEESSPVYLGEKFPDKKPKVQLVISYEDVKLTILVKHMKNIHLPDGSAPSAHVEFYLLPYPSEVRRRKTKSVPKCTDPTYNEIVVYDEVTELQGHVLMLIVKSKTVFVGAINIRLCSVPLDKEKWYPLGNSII
Briefly: Selectivity interaction (KinomeScan (DiscoverX)) EUB0000618a PIK3C2G. The settings on record: at 10 µM.

The target in assay [9] is Vascular endothelial growth factor receptor 3 (Homo sapiens, UniProt P35916). Briefly: Selectivity interaction (Upstate Kinase Profiler service (Millipore)) EUB0000056c FLT4. As to conditions: at 1 µM.

Chain of Mitogen-activated protein kinase 14 (Q16539 whole entry): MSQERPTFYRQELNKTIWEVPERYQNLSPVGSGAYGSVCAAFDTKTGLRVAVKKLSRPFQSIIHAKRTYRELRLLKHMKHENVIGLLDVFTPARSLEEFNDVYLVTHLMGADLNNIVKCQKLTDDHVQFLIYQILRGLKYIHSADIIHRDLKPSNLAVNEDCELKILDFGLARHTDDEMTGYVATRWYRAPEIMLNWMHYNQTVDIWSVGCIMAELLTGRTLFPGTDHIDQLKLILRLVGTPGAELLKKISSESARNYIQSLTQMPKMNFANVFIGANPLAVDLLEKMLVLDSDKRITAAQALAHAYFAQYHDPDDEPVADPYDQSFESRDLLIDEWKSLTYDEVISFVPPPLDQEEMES
Chain of Vascular endothelial growth factor receptor 1 (Homo sapiens) (P17948 whole entry): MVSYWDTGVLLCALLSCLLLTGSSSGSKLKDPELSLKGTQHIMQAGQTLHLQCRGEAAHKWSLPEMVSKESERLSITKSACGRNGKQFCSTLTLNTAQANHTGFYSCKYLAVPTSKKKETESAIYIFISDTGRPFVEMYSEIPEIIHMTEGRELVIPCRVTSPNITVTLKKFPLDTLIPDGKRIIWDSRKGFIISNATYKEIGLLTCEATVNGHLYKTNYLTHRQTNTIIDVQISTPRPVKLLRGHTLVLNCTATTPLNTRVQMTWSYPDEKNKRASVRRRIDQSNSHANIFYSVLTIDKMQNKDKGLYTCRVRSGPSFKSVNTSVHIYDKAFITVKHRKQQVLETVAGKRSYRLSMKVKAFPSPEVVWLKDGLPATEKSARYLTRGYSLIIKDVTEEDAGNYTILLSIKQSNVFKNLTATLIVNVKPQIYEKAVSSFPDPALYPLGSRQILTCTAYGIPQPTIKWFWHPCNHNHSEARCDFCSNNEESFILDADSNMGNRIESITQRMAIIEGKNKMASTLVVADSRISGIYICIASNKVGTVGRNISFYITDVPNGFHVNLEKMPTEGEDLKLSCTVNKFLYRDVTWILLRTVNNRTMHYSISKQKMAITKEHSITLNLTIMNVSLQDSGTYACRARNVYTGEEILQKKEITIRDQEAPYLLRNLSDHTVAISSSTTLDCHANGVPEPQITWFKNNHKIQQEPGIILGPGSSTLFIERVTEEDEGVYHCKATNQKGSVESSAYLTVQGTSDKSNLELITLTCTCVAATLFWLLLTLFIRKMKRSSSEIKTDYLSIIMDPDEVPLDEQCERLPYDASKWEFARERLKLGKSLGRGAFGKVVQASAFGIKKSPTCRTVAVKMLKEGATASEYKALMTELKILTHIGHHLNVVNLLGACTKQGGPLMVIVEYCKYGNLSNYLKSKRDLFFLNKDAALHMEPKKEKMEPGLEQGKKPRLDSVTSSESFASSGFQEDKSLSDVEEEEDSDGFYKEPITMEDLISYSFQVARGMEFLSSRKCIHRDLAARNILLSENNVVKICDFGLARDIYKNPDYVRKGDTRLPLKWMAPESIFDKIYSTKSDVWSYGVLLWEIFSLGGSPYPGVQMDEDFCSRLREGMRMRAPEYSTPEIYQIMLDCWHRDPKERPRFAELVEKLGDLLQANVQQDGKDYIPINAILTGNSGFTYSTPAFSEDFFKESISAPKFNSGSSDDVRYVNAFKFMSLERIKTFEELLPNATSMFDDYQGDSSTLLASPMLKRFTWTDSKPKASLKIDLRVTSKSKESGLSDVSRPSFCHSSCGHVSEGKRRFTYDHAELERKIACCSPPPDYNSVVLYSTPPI
Chain of Vascular endothelial growth factor receptor 2 (P35968 whole entry, the tested form may be a part): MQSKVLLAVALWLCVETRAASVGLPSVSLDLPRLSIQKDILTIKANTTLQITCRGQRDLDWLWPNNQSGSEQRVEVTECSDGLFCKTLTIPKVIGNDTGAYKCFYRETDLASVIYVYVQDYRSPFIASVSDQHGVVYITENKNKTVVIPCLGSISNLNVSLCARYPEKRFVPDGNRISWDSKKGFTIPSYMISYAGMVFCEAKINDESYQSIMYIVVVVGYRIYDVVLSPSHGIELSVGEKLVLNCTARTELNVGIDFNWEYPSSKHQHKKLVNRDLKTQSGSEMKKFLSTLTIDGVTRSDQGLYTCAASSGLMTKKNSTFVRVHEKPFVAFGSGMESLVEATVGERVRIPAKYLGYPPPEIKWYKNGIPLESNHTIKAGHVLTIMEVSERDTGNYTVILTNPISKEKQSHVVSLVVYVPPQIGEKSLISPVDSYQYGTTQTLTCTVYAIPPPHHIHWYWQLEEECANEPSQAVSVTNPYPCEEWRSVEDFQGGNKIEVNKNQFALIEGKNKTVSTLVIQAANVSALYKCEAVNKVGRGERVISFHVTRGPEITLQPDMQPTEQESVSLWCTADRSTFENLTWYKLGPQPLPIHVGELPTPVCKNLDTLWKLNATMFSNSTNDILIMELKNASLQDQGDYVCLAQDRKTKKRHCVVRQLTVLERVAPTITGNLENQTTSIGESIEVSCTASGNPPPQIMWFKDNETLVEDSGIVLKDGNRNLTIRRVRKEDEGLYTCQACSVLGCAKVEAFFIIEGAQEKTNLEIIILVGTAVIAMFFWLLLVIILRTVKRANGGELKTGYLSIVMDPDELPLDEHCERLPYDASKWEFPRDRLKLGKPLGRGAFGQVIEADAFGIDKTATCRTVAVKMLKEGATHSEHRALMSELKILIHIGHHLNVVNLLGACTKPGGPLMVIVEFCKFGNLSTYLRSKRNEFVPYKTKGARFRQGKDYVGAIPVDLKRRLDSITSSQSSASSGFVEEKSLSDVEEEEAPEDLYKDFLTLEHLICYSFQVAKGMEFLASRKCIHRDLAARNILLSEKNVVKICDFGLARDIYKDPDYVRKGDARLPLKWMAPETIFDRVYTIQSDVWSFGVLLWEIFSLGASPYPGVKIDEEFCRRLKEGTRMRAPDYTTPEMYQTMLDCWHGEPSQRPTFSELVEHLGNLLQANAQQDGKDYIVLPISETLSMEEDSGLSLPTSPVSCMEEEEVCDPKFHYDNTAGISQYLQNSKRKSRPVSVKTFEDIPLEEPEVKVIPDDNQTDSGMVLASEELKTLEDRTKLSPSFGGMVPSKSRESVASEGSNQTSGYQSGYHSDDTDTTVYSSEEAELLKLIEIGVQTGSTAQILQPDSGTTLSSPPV
Chain of Calcium/calmodulin-dependent protein kinase type 1D (Homo sapiens) (Q8IU85 whole entry, looked up): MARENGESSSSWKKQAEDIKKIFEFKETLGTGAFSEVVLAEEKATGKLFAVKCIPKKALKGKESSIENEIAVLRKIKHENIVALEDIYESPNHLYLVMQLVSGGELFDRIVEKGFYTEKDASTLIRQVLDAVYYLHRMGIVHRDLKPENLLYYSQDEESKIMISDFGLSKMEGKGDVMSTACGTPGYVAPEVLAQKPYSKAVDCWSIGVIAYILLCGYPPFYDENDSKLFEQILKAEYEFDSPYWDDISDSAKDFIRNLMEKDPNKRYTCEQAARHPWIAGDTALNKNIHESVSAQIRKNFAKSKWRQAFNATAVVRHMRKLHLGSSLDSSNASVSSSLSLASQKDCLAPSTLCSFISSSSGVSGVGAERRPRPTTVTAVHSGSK
Chain of Mitogen-activated protein kinase 3 (P27361 whole entry): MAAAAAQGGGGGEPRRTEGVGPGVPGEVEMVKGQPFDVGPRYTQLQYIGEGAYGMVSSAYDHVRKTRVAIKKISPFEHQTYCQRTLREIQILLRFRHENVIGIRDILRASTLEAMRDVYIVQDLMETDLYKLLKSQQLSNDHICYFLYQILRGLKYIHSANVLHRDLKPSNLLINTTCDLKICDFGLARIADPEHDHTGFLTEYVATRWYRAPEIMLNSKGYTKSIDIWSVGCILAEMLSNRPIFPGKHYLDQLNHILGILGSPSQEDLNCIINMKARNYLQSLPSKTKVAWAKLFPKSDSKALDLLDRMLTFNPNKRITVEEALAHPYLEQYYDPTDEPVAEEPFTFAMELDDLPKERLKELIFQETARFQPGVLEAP

On to `CN(C)C/C=C/C(=O)Nc1ccc(C(=O)N2CCCC(Nc3ncc(Cl)c(-c4c[nH]c5ccccc45)n3)C2)cc1` (stereo not drawn), for which the % of control came to 72% in [1] and 89% in [2].
Consider `CC[C@@H]1[C@H](F)C(=O)N[C@@H]1COc1nccc2cc(C(N)=O)c(OC)cc12` [ZIMLOVISERTIB], for which the % of inhibition in assay [3] was 5.2%; in assay [4] (at 0.01 µM), 0.8%; in assay [4] (at 0.04 µM), 1.1%; in [4] (at 0.2 µM), 10.2%; in assay [4] (at 1 µM), 10.6%; in assay [4] (at 5 µM), 4.8%. The % of inhibition in [5] turned out to be 4.09%.
As to `CCC(=O)N1CCN(c2ccc(-n3c(=O)ccc4cnc5ccc(-c6cnc7ccccc7c6)cc5c43)cc2C(F)(F)F)CC1`, the % of control amounted to 79% in assay [6] and 65% in assay [7].
For the molecule `O[C@H]1CC[C@H](Nc2ncc3nc(Nc4c(F)cc(F)cc4F)n([C@H]4CCOC4)c3n2)CC1`, the % of control in assay [8] is 93%.
Molecule `Cc1ccc(-c2ccc3c(ccc4sc5c(c43)NC[C@@H](C)NC5=O)n2)cn1` showed a % of inhibition in assay [9] of 40%.
